Reference: the NIST ThermoML archive (doi:10.1021/je800925v)

Experiment: xn = mol fraction of the nth substance listed
Settings: Liquid

CCCCCCCCCC [decane] + CCO
Settings	mass density [kg/m3]	viscosity [mPa·s]
273.15 K, x2 = 0.098	746.5	1.236
273.15 K, x2 = 0.198	748.3	1.257
273.15 K, x2 = 0.301	750.7	1.273
273.15 K, x2 = 0.397	753.8	1.328
273.15 K, x2 = 0.501	757.4	1.429
273.15 K, x2 = 0.602	762.7	1.523
273.15 K, x2 = 0.694	767.4	1.53
273.15 K, x2 = 0.799	774.9	1.565
273.15 K, x2 = 0.905	787.7	1.639
275.65 K, x2 = 0.098	744.6	1.181
275.65 K, x2 = 0.198	746.4	1.2
275.65 K, x2 = 0.301	748.7	1.213
275.65 K, x2 = 0.397	751.8	1.263
275.65 K, x2 = 0.501	755.4	1.351
275.65 K, x2 = 0.602	760.7	1.432
275.65 K, x2 = 0.694	765.4	1.448
275.65 K, x2 = 0.799	772.9	1.486
275.65 K, x2 = 0.905	785.7	1.557
278.15 K, x2 = 0.098	742.7	1.13
278.15 K, x2 = 0.198	744.4	1.148
278.15 K, x2 = 0.301	746.8	1.158
278.15 K, x2 = 0.397	749.9	1.203
278.15 K, x2 = 0.501	753.4	1.281
278.15 K, x2 = 0.602	758.7	1.353
278.15 K, x2 = 0.694	763.3	1.374
278.15 K, x2 = 0.799	770.9	1.412
278.15 K, x2 = 0.905	783.6	1.48
280.65 K, x2 = 0.098	740.8	1.083
280.65 K, x2 = 0.198	742.5	1.099
280.65 K, x2 = 0.301	744.8	1.107
280.65 K, x2 = 0.397	747.9	1.147
280.65 K, x2 = 0.501	751.5	1.217
280.65 K, x2 = 0.602	756.7	1.282
280.65 K, x2 = 0.694	761.3	1.305
280.65 K, x2 = 0.799	768.8	1.344
280.65 K, x2 = 0.905	781.6	1.408
283.15 K, x2 = 0.098	738.9	1.038
283.15 K, x2 = 0.198	740.6	1.053
283.15 K, x2 = 0.301	742.9	1.06
283.15 K, x2 = 0.397	746	1.096
283.15 K, x2 = 0.501	749.5	1.159
283.15 K, x2 = 0.602	754.7	1.219
283.15 K, x2 = 0.694	759.3	1.242
283.15 K, x2 = 0.799	766.8	1.28
283.15 K, x2 = 0.905	779.5	1.341
285.65 K, x2 = 0.098	737	0.9963
285.65 K, x2 = 0.198	738.7	1.01
285.65 K, x2 = 0.301	741	1.015
285.65 K, x2 = 0.397	744	1.048
285.65 K, x2 = 0.501	747.5	1.105
285.65 K, x2 = 0.602	752.7	1.158
285.65 K, x2 = 0.694	757.3	1.183
285.65 K, x2 = 0.799	764.7	1.22
285.65 K, x2 = 0.905	777.4	1.278
288.15 K, x2 = 0.098	735	0.9574
288.15 K, x2 = 0.198	736.7	0.9702
288.15 K, x2 = 0.301	739	0.9738
288.15 K, x2 = 0.397	742	1.003
288.15 K, x2 = 0.501	745.5	1.056
288.15 K, x2 = 0.602	750.6	1.104
288.15 K, x2 = 0.694	755.2	1.128
288.15 K, x2 = 0.799	762.7	1.163
288.15 K, x2 = 0.905	775.3	1.218
290.65 K, x2 = 0.098	733.1	0.9207
290.65 K, x2 = 0.198	734.8	0.9321
290.65 K, x2 = 0.301	737	0.9348
290.65 K, x2 = 0.397	740	0.9608
290.65 K, x2 = 0.501	743.5	1.009
290.65 K, x2 = 0.602	748.6	1.053
290.65 K, x2 = 0.694	753.1	1.076
290.65 K, x2 = 0.799	760.6	1.11
290.65 K, x2 = 0.905	773.3	1.162
293.15 K, x2 = 0	731	0.9133
293.15 K, x2 = 0.098	731.2	0.8862
293.15 K, x2 = 0.198	732.8	0.8973
293.15 K, x2 = 0.301	735.1	0.8982
293.15 K, x2 = 0.397	738	0.9215
293.15 K, x2 = 0.501	741.5	0.966
293.15 K, x2 = 0.602	746.6	1.006
293.15 K, x2 = 0.694	751.1	1.028
293.15 K, x2 = 0.799	758.5	1.061
293.15 K, x2 = 0.905	771.2	1.109
295.65 K, x2 = 0.098	729.4	0.8534
295.65 K, x2 = 0.198	730.9	0.8635
295.65 K, x2 = 0.301	733.1	0.8638
295.65 K, x2 = 0.397	736	0.8848
295.65 K, x2 = 0.501	739.5	0.9255
295.65 K, x2 = 0.602	744.5	0.962
295.65 K, x2 = 0.694	749	0.983
295.65 K, x2 = 0.799	756.5	1.014
295.65 K, x2 = 0.905	769.1	1.06
298.15 K, x2 = 0	727.2	0.8509
298.15 K, x2 = 0.098	727.3	0.823
298.15 K, x2 = 0.198	728.9	0.8318
298.15 K, x2 = 0.301	731.1	0.8314
298.15 K, x2 = 0.397	734	0.8501
298.15 K, x2 = 0.501	737.5	0.8872
298.15 K, x2 = 0.602	742.5	0.9216
298.15 K, x2 = 0.694	747	0.9407
298.15 K, x2 = 0.799	754.4	0.9698
298.15 K, x2 = 0.905	766.9	1.013
